The target of test [1] is T1, human AT1R (angiotensin II type 1 receptor) (Homo sapiens, UniProt P30556).
T1 sequence (P30556 1-359): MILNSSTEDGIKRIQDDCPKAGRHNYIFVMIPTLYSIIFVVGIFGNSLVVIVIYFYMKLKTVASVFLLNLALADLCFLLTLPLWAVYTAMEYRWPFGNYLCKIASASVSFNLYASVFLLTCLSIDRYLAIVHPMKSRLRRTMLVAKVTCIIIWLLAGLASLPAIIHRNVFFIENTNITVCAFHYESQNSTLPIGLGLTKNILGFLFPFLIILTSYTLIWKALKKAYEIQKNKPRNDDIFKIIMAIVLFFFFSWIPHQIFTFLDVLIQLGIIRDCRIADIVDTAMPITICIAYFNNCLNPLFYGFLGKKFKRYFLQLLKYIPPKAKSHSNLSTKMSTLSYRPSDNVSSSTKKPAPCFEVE
The test is described as follows: inhibition of AngII-induced G protein activation, cell impedance. It is filed as cell-based.

The target in test [2] is T1, human AT1R (angiotensin II type 1 receptor). As to the kind of experiment: inhibition of AngII-induced beta-arrestin activation, cell impedance. The test is classed as cell-based.

As a reminder, the IC50 is the midpoint of a concentration-inhibition curve. A lower IC50 goes with higher potency. Consider `CCOc1nc2cccc(C(=O)O)c2n1Cc1ccc(-c2ccccc2-c2noc(=O)[nH]2)cc1` [Azilsartan], for which the IC50 in test [1] and in test [2] was 1.6 nM each time.

Consider `CCOc1nc2cccc(C(=O)O)c2n1Cc1ccc(-c2ccccc2-c2nnn[nH]2)cc1` [Candesartan], for which the IC50 in test [1] came out at 2 nM; in test [2] it was 0.7 nM.

With `CCCCc1ncc(/C=C(\Cc2cccs2)C(=O)O)n1Cc1ccc(C(=O)O)cc1` [Eprosartan], the IC50 was 4.7 nM in test [1] and 7.5 nM in test [2].

For the molecule `CCCc1nc(C(C)(C)O)c(C(=O)O)n1Cc1ccc(-c2ccccc2-c2nnn[nH]2)cc1` [Olmesartan], the IC50 in test [1] stood at 14.5 nM; in test [2] it was 20.4 nM.
